# From the supplement of paper PMC10307832
# Compound: O=C(/C=C/c1ccccc1)NC(NC(=S)Nc1cccc2cccnc12)C(Cl)(Cl)Cl [Salubrinal] + CS(=O)(=O)N1CCN(Cc2cc3nc(-c4cccc5[nH]ncc45)nc(N4CCOCC4)c3s2)CC1 [Pictilisib] (partner 1 µM)
# Experiment: relative viability (nuclei count vs DMSO), 5 days (fraction); higher = more cells survive
# Settings: first compound 0.08 µM
# How it was run: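 Dosing by pin tool came one day after lung cancer cell lines were seeded in 1536-well plates, using either one drug or a fixed anchor-drug dose plus five library-drug doses (not always all listed) in √10 steps. After 5 days, nuclei were counted on 4× images. Relative viability is treated-well nuclei count divided by vehicle-well nuclei count, and values are medians of duplicate plates.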
row,Cell Line,relative viability
1,NCI-H727,0.318
2,NCI-H1650,0.536
3,EBC-1,0.332
4,NCI-H1703,0.216
5,NCI-H1993,0.817
6,SW 1573,0.539
7,NCI-H838,0.361
8,LCLC-103H,0.591
9,NCI-H520,0.376
10,NCI-H2126,0.423
11,EMC-BAC-2,0.607
12,NCI-H2085,0.464
13,Calu-6,1.11
14,HCC-366,0.132
15,NCI-H1666,0.398
16,NCI-H596,0.421
17,LK-2,0.59
18,NCI-H2087,0.917

row,Cell Line,relative viability
1,NCI-H358,0.328
2,NCI-H2170,0.29
3,H3255,0.561
4,COR-L23,0.946
5,COR-L 105,0.419
6,IA-LM,0.353
7,LOU-NH91,0.541
8,ChaGo-K-1,0.73
9,A549,0.585
10,SK-MES-1,0.435
11,NCI-H2009,0.976
12,NCI-H661,0.434
13,SK-LU-1,0.678
14,NCI-H1299,0.911
15,CAL-12T,0.392
16,NCI-H2228,0.472
17,NCI-H2023,0.22
18,NCI-H1563,0.665

# Same assay, conditions: first compound 0.253 µM
row,Cell Line,relative viability
1,NCI-H727,0.312
2,NCI-H1650,0.491
3,EBC-1,0.373
4,NCI-H1703,0.246
5,NCI-H1993,0.827
6,SW 1573,0.406
7,NCI-H838,0.408
8,LCLC-103H,0.599
9,NCI-H520,0.212
10,NCI-H2126,0.479
11,EMC-BAC-2,0.454
12,NCI-H2085,0.475
13,Calu-6,0.817
14,HCC-366,0.143
15,NCI-H1666,0.491
16,NCI-H596,0.347
17,LK-2,0.541
18,NCI-H2087,0.892

row,Cell Line,relative viability
1,NCI-H358,0.455
2,NCI-H2170,0.315
3,H3255,0.535
4,COR-L23,0.666
5,COR-L 105,0.358
6,IA-LM,0.279
7,LOU-NH91,0.502
8,ChaGo-K-1,0.625
9,A549,0.419
10,SK-MES-1,0.339
11,NCI-H2009,0.857
12,NCI-H661,0.196
13,SK-LU-1,0.588
14,NCI-H1299,0.704
15,CAL-12T,0.488
16,NCI-H2228,0.356
17,NCI-H2023,0.278
18,NCI-H1563,0.586

# Same assay, conditions: first compound 0.8 µM
row,Cell Line,relative viability
1,NCI-H727,0.433
2,NCI-H1650,0.635
3,EBC-1,0.4
4,NCI-H1703,0.238
5,NCI-H1993,0.877
6,SW 1573,0.537
7,NCI-H838,0.496
8,LCLC-103H,0.743
9,NCI-H520,0.338
10,NCI-H2126,0.515
11,EMC-BAC-2,0.574
12,NCI-H2085,0.512
13,Calu-6,0.925
14,HCC-366,0.121
15,NCI-H1666,0.485
16,NCI-H596,0.437
17,LK-2,0.666
18,NCI-H2087,1.02

row,Cell Line,relative viability
1,NCI-H358,0.356
2,NCI-H2170,0.335
3,H3255,0.576
4,COR-L23,0.899
5,COR-L 105,0.406
6,IA-LM,0.357
7,LOU-NH91,0.576
8,ChaGo-K-1,1.21
9,A549,0.517
10,SK-MES-1,0.356
11,NCI-H2009,1.02
12,NCI-H661,0.443
13,SK-LU-1,0.698
14,NCI-H1299,0.874
15,CAL-12T,0.438
16,NCI-H2228,0.31
17,NCI-H2023,0.289
18,NCI-H1563,0.639

# Same assay, conditions: first compound 2.53 µM
row,Cell Line,relative viability
1,NCI-H727,0.197
2,NCI-H1650,0.581
3,EBC-1,0.273
4,NCI-H1703,0.259
5,NCI-H1993,0.773
6,SW 1573,0.465
7,NCI-H838,0.435
8,LCLC-103H,0.562
9,NCI-H520,0.302
10,NCI-H2126,0.483
11,EMC-BAC-2,0.583
12,NCI-H2085,0.542
13,Calu-6,0.871
14,HCC-366,0.151
15,NCI-H1666,0.404
16,NCI-H596,0.456
17,LK-2,0.512
18,NCI-H2087,0.853

row,Cell Line,relative viability
1,NCI-H358,0.309
2,NCI-H2170,0.294
3,H3255,0.456
4,COR-L23,0.676
5,COR-L 105,0.349
6,IA-LM,0.219
7,LOU-NH91,0.479
8,ChaGo-K-1,1.01
9,A549,0.436
10,SK-MES-1,0.305
11,NCI-H2009,0.756
12,NCI-H661,0.384
13,SK-LU-1,0.647
14,NCI-H1299,0.698
15,CAL-12T,0.734
16,NCI-H2228,0.543
17,NCI-H2023,0.277
18,NCI-H1563,0.623

# Same assay, conditions: first compound 8 µM
row,Cell Line,relative viability
1,NCI-H727,0.359
2,NCI-H1650,0.536
3,EBC-1,0.248
4,NCI-H1703,0.264
5,NCI-H1993,0.861
6,SW 1573,0.471
7,NCI-H838,0.282
8,LCLC-103H,0.535
9,NCI-H520,0.316
10,NCI-H2126,0.481
11,EMC-BAC-2,0.565
12,NCI-H2085,0.489
13,Calu-6,0.792
14,HCC-366,0.179
15,NCI-H1666,0.45
16,NCI-H596,0.401
